Results published in patent publication US7741253B2, “Methods and compositions for crosslinking polymers with boronic acids” (Halliburton Energy Services, Inc., priority 2004, dated 2010).
Values belong to the molecule of their own block, whether it stands above or below them.

Experiment: pH titration (method of Wiskur et al.)
Assay type: physicochemical
Description: The exemplary boronic acid crosslinking agent prepared as described above was compared to 1,4-phenylene diboronic acid and boric acid using a pH titration that was performed according to the method of S. L. Wiskur, et al., Org.

- pH (NaOH 0 μL): 3.32
- pH (NaOH 1 μL): 3.47
- pH (NaOH 2 μL): 3.67
- pH (NaOH 3 μL): 4.07
- pH (NaOH 4 μL): 5.66
- pH (NaOH 5 μL): 6.6
- pH (NaOH 6 μL): 6.97
- pH (NaOH 7 μL): 7.18
- pH (NaOH 8 μL): 7.33
- pH (NaOH 9 μL): 7.44
- pH (NaOH 10 μL): 7.53
- pH (NaOH 11 μL): 7.62
- pH (NaOH 12 μL): 7.69
- pH (NaOH 13 μL): 7.76
- pH (NaOH 14 μL): 7.82
- pH (NaOH 15 μL): 7.88
- pH (NaOH 16 μL): 7.94
- pH (NaOH 17 μL): 8
- pH (NaOH 18 μL): 8.05
- pH (NaOH 19 μL): 8.11
- pH (NaOH 20 μL): 8.17
- pH (NaOH 21 μL): 8.21
- pH (NaOH 22 μL): 8.25
- pH (NaOH 23 μL): 8.39
- pH (NaOH 24 μL): 8.46
- pH (NaOH 25 μL): 8.51
- pH (NaOH 26 μL): 8.57
- pH (NaOH 27 μL): 8.64
- pH (NaOH 28 μL): 8.7
- pH (NaOH 29 μL): 8.76
- pH (NaOH 30 μL): 8.82
- pH (NaOH 31 μL): 8.96
- pH (NaOH 32 μL): 9.02
- pH (NaOH 33 μL): 9.09
- pH (NaOH 34 μL): 9.15
- pH (NaOH 35 μL): 9.21
- pH (NaOH 36 μL): 9.26
- pH (NaOH 37 μL): 9.32
- pH (NaOH 38 μL): 9.38
- pH (NaOH 39 μL): 9.43
- pH (NaOH 40 μL): 9.47
- pH (NaOH 41 μL): 9.51
- pH (NaOH 42 μL): 9.56
- pH (NaOH 43 μL): 9.6
- pH (NaOH 44 μL): 9.64
- pH (NaOH 45 μL): 9.68
- pH (NaOH 46 μL): 9.71
- pH (NaOH 47 μL): 9.75
- pH (NaOH 48 μL): 9.79
- pH (NaOH 49 μL): 9.82
- pH (NaOH 50 μL): 9.86
- pH (NaOH 51 μL): 9.89
- pH (NaOH 52 μL): 9.93
- pH (NaOH 53 μL): 9.96
- pH (NaOH 54 μL): 10
- pH (NaOH 55 μL): 10.03
- pH (NaOH 56 μL): 10.06
- pH (NaOH 57 μL): 10.1
- pH (NaOH 58 μL): 10.13
- pH (NaOH 59 μL): 10.16
- pH (NaOH 60 μL): 10.19
- pH (NaOH 61 μL): 10.23
- pH (NaOH 62 μL): 10.26
- pH (NaOH 63 μL): 10.28
- pH (NaOH 64 μL): 10.3
- pH (NaOH 65 μL): 10.33
- pH (NaOH 66 μL): 10.33
- pH (NaOH 67 μL): 10.37
- pH (NaOH 68 μL): 10.39
- pH (NaOH 69 μL): 10.42
- pH (NaOH 70 μL): 10.44
- pH (NaOH 71 μL): 10.47
- pH (NaOH 72 μL): 10.49
- pH (NaOH 73 μL): 10.49
- pH (NaOH 74 μL): 10.53
- pH (NaOH 75 μL): 10.55
- pH (NaOH 76 μL): 10.55
- pH (NaOH 77 μL): 10.57
Compound: OB(O)c1ccc(B(O)O)cc1 [1,4-phenylene diboronic acid]

- pH (NaOH 0 μL): 3.03
- pH (NaOH 1 μL): 3.13
- pH (NaOH 2 μL): 3.25
- pH (NaOH 3 μL): 3.4
- pH (NaOH 4 μL): 3.64
- pH (NaOH 5 μL): 4.06
- pH (NaOH 6 μL): 6.08
- pH (NaOH 7 μL): 7.58
- pH (NaOH 8 μL): 7.91
- pH (NaOH 9 μL): 8.11
- pH (NaOH 10 μL): 8.26
- pH (NaOH 11 μL): 8.39
- pH (NaOH 12 μL): 8.49
- pH (NaOH 13 μL): 8.59
- pH (NaOH 14 μL): 8.67
- pH (NaOH 15 μL): 8.74
- pH (NaOH 16 μL): 8.82
- pH (NaOH 17 μL): 8.89
- pH (NaOH 18 μL): 8.96
- pH (NaOH 19 μL): 9.03
- pH (NaOH 20 μL): 9.1
- pH (NaOH 21 μL): 9.17
- pH (NaOH 22 μL): 9.25
- pH (NaOH 23 μL): 9.31
- pH (NaOH 24 μL): 9.38
- pH (NaOH 25 μL): 9.47
- pH (NaOH 26 μL): 9.55
- pH (NaOH 27 μL): 9.65
- pH (NaOH 28 μL): 9.74
- pH (NaOH 29 μL): 9.85
- pH (NaOH 30 μL): 9.95
- pH (NaOH 31 μL): 10.05
- pH (NaOH 32 μL): 10.13
- pH (NaOH 33 μL): 10.22
- pH (NaOH 34 μL): 10.29
- pH (NaOH 35 μL): 10.35
- pH (NaOH 36 μL): 10.4
- pH (NaOH 37 μL): 10.45
- pH (NaOH 38 μL): 10.49
- pH (NaOH 39 μL): 10.53
- pH (NaOH 40 μL): 10.56
- pH (NaOH 41 μL): 10.59
- pH (NaOH 42 μL): 10.62
- pH (NaOH 43 μL): 10.65
- pH (NaOH 44 μL): 10.68
- pH (NaOH 45 μL): 10.7
- pH (NaOH 46 μL): 10.71
- pH (NaOH 47 μL): 10.75
- pH (NaOH 48 μL): 10.77
- pH (NaOH 49 μL): 10.78
- pH (NaOH 50 μL): 10.78
- pH (NaOH 51 μL): 10.81
- pH (NaOH 52 μL): 10.82
- pH (NaOH 53 μL): 10.82
- pH (NaOH 54 μL): 10.85
- pH (NaOH 55 μL): 10.85
- pH (NaOH 56 μL): 10.87
- pH (NaOH 57 μL): 10.87
- pH (NaOH 58 μL): 10.89
- pH (NaOH 59 μL): 10.89
- pH (NaOH 60 μL): 10.91
- pH (NaOH 61 μL): 10.92
- pH (NaOH 62 μL): 10.92
- pH (NaOH 63 μL): 10.92
- pH (NaOH 64 μL): 10.95
- pH (NaOH 65 μL): 10.95
- pH (NaOH 66 μL): 10.95
- pH (NaOH 67 μL): 10.97
- pH (NaOH 68 μL): 10.97
- pH (NaOH 69 μL): 11
- pH (NaOH 70 μL): 11
- pH (NaOH 71 μL): 11
- pH (NaOH 72 μL): 11
- pH (NaOH 73 μL): 11
- pH (NaOH 74 μL): 11
- pH (NaOH 75 μL): 11.03
- pH (NaOH 76 μL): 11.03
- pH (NaOH 77 μL): 11.03
Compound: OB(O)O [Boric acid]
